In ChEMBL document CHEMBL1201862, “PubChem BioAssay data set” (2004):
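All cell lines were grown in 96-well plates and treated with compound for 48 hours. At the GI50, growth is halved.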 Calls of active or inactive are those of the source. No stated cut-off is given here; in the data, active = GI50 up to about 1.1 µM and inactive = higher.

Legend:
Assay in all cases: NCI-60 cell line screen, 48 h
EKVX = tested on: EKVX
ACHN = tested on: ACHN
A549 = tested on: A549
CAKI-1 = tested on: CAKI-1
A498 = tested on: A498
RPMI-8226 = tested on: RPMI-8226
Malme-3M = tested on: Malme-3M
SNB-19 = tested on: SNB-19
HOP-92 = tested on: HOP-92
HT-29 = tested on: HT-29
SNB-75 = tested on: SNB-75
UACC-62 = tested on: UACC-62
SK-MEL-5 = tested on: SK-MEL-5
KM12 = tested on: KM12
786-0 = tested on: 786-0
K562 = tested on: K562
MDA-MB-231 = tested on: MDA-MB-231
NCI/ADR-RES = tested on: NCI/ADR-RES
T47D = tested on: T47D
LOX IMVI = tested on: LOX IMVI

Structure (SMILES) | GI50 (EKVX) | GI50 (ACHN) | GI50 (A549) | GI50 (CAKI-1) | GI50 (A498) | GI50 (RPMI-8226) | GI50 (Malme-3M) | GI50 (SNB-19) | GI50 (HOP-92) | GI50 (HT-29) | GI50 (SNB-75) | GI50 (UACC-62) | GI50 (SK-MEL-5) | GI50 (KM12) | GI50 (786-0) | GI50 (K562) | GI50 (MDA-MB-231) | GI50 (NCI/ADR-RES) | GI50 (T47D) | GI50 (LOX IMVI)
C/C(=N\Nc1cc(CN2CCCC2)c(-c2ccc(Cl)cc2)nn1)C(=O)O | > 100 µM (inactive) | > 100 µM (inactive) | > 100 µM (inactive) | > 100 µM (inactive) | > 100 µM (inactive) | > 100 µM (inactive) | > 100 µM (inactive) | > 100 µM (inactive) | > 100 µM (inactive) | > 100 µM (inactive) | > 100 µM (inactive) | > 100 µM (inactive) | > 100 µM (inactive) | > 100 µM (inactive) | > 100 µM (inactive) | > 100 µM (inactive) | > 100 µM (inactive) | > 100 µM (inactive) | > 100 µM (inactive) | > 100 µM (inactive)
COc1cc2cc(C(=O)N3C[C@H](CCl)c4c3cc(N)c3ccccc43)[nH]c2c(OC)c1OC | 0.0103 µM (active) | < 0.005 µM (active) | 1.3 µM (inactive) | < 0.005 µM (active) | 0.0075 µM (active) | 0.0275 µM (active) | 0.005 µM (active) | 0.713 µM (active) | 0.0489 µM (active) | 0.00296 µM (active) | 2.19 µM (inactive) | 2.44 µM (inactive) | < 0.005 µM (active) | 0.00187 µM (active) | 5.11 µM (inactive) | 2.39 µM (inactive) | 3.36 µM (inactive) | 0.00791 µM (active) | < 0.005 µM (active) | 0.519 µM (active)
O=C(O)c1cc(/N=C/c2ccccc2O)cc(C(=O)O)c1 | > 100 µM (inactive) | > 100 µM (inactive) | > 100 µM (inactive) | > 100 µM (inactive) | > 100 µM (inactive) | > 100 µM (inactive) | > 100 µM (inactive) | > 100 µM (inactive) | > 100 µM (inactive) | > 100 µM (inactive) | > 100 µM (inactive) | > 100 µM (inactive) | > 100 µM (inactive) | > 100 µM (inactive) | > 100 µM (inactive) | > 100 µM (inactive) | > 100 µM (inactive) | > 100 µM (inactive) | > 100 µM (inactive) | > 100 µM (inactive)
c1ccc(COC[C@H]2C3OCC([C@H](OCc4ccccc4)[C@H]3OCc3ccccc3)N2Cc2ccccc2)cc1 (stereo not given in full) | > 46.7 µM (inactive) | > 56.2 µM (inactive) | > 54.2 µM (inactive) | > 53.7 µM (inactive) | 33.7 µM (inactive) | 15.8 µM (inactive) | 27.9 µM (inactive) | > 49.3 µM (inactive) | > 57.1 µM (inactive) | 46.6 µM (inactive) | 21.1 µM (inactive) | 29.7 µM (inactive) | 30.8 µM (inactive) | 25.3 µM (inactive) | > 50.1 µM (inactive) | 12.4 µM (inactive) | > 49.2 µM (inactive) | > 47.8 µM (inactive) | 13.6 µM (inactive) | > 50.6 µM (inactive)
CCCCCCCCCCCCCCCCCCNc1ccn(C2OC(CO)C(OP(=O)(O)OCC(O)COP(=O)(O)OCC3OC(n4cc(F)c(NCCCCCCCCCCCCCCCCCC)nc4=O)CC3O)C2O)c(=O)n1 (stereo not given) | > 50 µM (inactive) | > 50 µM (inactive) | > 50 µM (inactive) | > 50 µM (inactive) | > 50 µM (inactive) | > 50 µM (inactive) | > 50 µM (inactive) | > 50 µM (inactive) | > 50 µM (inactive) | > 50 µM (inactive) | > 50 µM (inactive) | > 50 µM (inactive) | > 50 µM (inactive) | > 50 µM (inactive) | > 50 µM (inactive) | > 50 µM (inactive) | > 50 µM (inactive) | > 50 µM (inactive) | > 50 µM (inactive) | > 50 µM (inactive)
CCCCCNc1nonc1N | > 100 µM (inactive) | > 100 µM (inactive) | > 100 µM (inactive) | > 100 µM (inactive) | > 84.9 µM (inactive) | > 100 µM (inactive) | > 100 µM (inactive) | > 100 µM (inactive) | > 100 µM (inactive) | > 100 µM (inactive) | > 100 µM (inactive) | > 100 µM (inactive) | > 100 µM (inactive) | > 100 µM (inactive) | > 100 µM (inactive) | > 100 µM (inactive) | > 100 µM (inactive) | > 100 µM (inactive) | > 100 µM (inactive) | > 100 µM (inactive)
O=C(/C=C/c1ccccc1)CCN1CCCCC1 | > 100 µM (inactive) | 84.7 µM (inactive) | 54.1 µM (inactive) | 87.9 µM (inactive) | 39.2 µM (inactive) | 14.7 µM (inactive) | > 100 µM (inactive) | > 100 µM (inactive) | > 100 µM (inactive) | 19.7 µM (inactive) | 36.8 µM (inactive) | 55.2 µM (inactive) | 32.8 µM (inactive) | 28.5 µM (inactive) | 20.5 µM (inactive) | 40.1 µM (inactive) | 26 µM (inactive) | 38.8 µM (inactive) | 35.5 µM (inactive) | 17.5 µM (inactive)
CCOC(=O)C1C(c2ccco2)C2(C#N)C(=N)OC1(C)C2(C#N)C#N (stereo not given) | > 100 µM (inactive) | > 100 µM (inactive) | > 100 µM (inactive) | > 100 µM (inactive) | > 100 µM (inactive) | > 100 µM (inactive) | > 100 µM (inactive) | > 100 µM (inactive) | > 100 µM (inactive) | > 100 µM (inactive) | 57.7 µM (inactive) | > 100 µM (inactive) | > 100 µM (inactive) | > 100 µM (inactive) | > 100 µM (inactive) | > 100 µM (inactive) | > 100 µM (inactive) | > 100 µM (inactive) | > 100 µM (inactive) | > 100 µM (inactive)
CSCC[C@H](NC(=O)[C@H](CC(C)C)NC(=O)[C@@H](Cc1ccccc1)NC(=O)CNC(=O)[C@@H](NC(=O)[C@H](C)NC(=O)[C@H](Cc1c[nH]c2ccccc12)NC(=O)[C@H](CCC(N)=O)NC(=O)[C@H](N)CC(N)=O)C(C)C)C(N)=O | > 12.5 µM (inactive) | > 12.5 µM (inactive) | > 12.5 µM (inactive) | > 12.5 µM (inactive) | > 12.5 µM (inactive) | > 12.5 µM (inactive) | > 12.5 µM (inactive) | > 12.5 µM (inactive) | > 12.5 µM (inactive) | > 12.5 µM (inactive) | > 12.5 µM (inactive) | > 12.5 µM (inactive) | > 12.5 µM (inactive) | > 12.5 µM (inactive) | > 12.5 µM (inactive) | > 12.5 µM (inactive) | > 12.5 µM (inactive) | > 12.5 µM (inactive) | > 12.5 µM (inactive) | > 12.5 µM (inactive)
COc1cc(/C=C2/CCCc3ccccc3C2=O)cc(OC)c1OC | 17.6 µM (inactive) | 15.8 µM (inactive) | 27 µM (inactive) | 18.8 µM (inactive) | 7.89 µM (inactive) | 2.63 µM (inactive) | 12.7 µM (inactive) | 32.5 µM (inactive) | 14.8 µM (inactive) | 17.5 µM (inactive) | 12.4 µM (inactive) | 16.4 µM (inactive) | 3.27 µM (inactive) | 11.7 µM (inactive) | 18.3 µM (inactive) | 2.65 µM (inactive) | 15.6 µM (inactive) | 9.2 µM (inactive) | 5.92 µM (inactive) | 15.4 µM (inactive)
CC[C@@]1(O)C(=O)OCc2c1cc1n(c2=O)Cc2c-1nc1ccc(O)cc1c2[Si](C)(C)C(C)(C)C [AR-67] | 0.333 µM (active) | < 0.01 µM (active) | < 0.01 µM (active) | < 0.01 µM (active) | 0.0211 µM (active) | < 0.0152 µM (active) | < 0.01 µM (active) | < 0.01 µM (active) | 0.0132 µM (active) | 0.0855 µM (active) | < 0.01 µM (active) | < 0.01 µM (active) | < 0.01 µM (active) | 0.024 µM (active) | < 0.01 µM (active) | < 0.0219 µM (active) | 0.286 µM (active) | 0.0324 µM (active) | < 0.01 µM (active) | < 0.01 µM (active)
CCCC(=O)OCC(COC(=O)CCC)OC(=O)CCC [TRIBUTYRIN] | > 100 µM (inactive) | 96.2 µM (inactive) | 96.6 µM (inactive) | 49.1 µM (inactive) | > 100 µM (inactive) | 17.1 µM (inactive) | 41.2 µM (inactive) | > 100 µM (inactive) | > 100 µM (inactive) | > 100 µM (inactive) | 36.7 µM (inactive) | 58.3 µM (inactive) | 41.8 µM (inactive) | > 100 µM (inactive) | > 100 µM (inactive) | 64.7 µM (inactive) | 45.2 µM (inactive) | 20.1 µM (inactive) | > 100 µM (inactive) | 82 µM (inactive)
